Measured values: patent publication EP0407583A1, “DERIVATIVES OF DICHLOR[…] ACYLAMIDO[…] AND INSECTICIDAL, FU[…] HEMATOCIDAL PREPARATIONS BASED ON THEM” (priority 1989, dated 1990)

Tests used:
Solubility (qualitative) = settings: water, alcohols, acetone
[1] = test system: invasion larvae of gall nematodes; test: Nematocidal effect on invasion larvae, experimental (object glass) test; type: in vivo; settings: 1% solution in distilled water; 100 invasion larvae; 24 hours
Method: A nematocidal effect of the composition, according to the invention, was tested on invasion larvae of gall nematodes. To this end, 1 droplet of a suspension containing 100 invasion larvae of gall nematodes was placed onto the object glasses with cells. 1 droplet of the composition of the invention was added thereinto. 1 drop of distilled water was added to the control cell instead of the composition, according to the invention. The glasses with test and control cells were placed onto Petri dish with a moisten ashless filter, and 24 hours later the killed nematodes were recorded. The tests were 3-fold repeated. The study of a nematocidal activity was conducted in comparison with a known nematocidal composition based on 0,0-dimethyl-0-/2-(N,N'-diethylcarbamoyl)-1-methyl-2-chlorovinyl/ /phosphate.

[2] = test system: leaves of tomato and cucumber; test: Phytotoxic effect on leaves; type: in vivo; settings: nematocidal composition, 1% solution in distilled water
gall nematodes = test: Nematocidal effect, field test on affected tomato plants; type: in vivo; settings: 5 m^2 plots of tomato plants affected by nematodes
Method: In the field conditions, the plots of 5 m^2 in size of tomato plants affected by nematodes were treated with the claimed nematocidal compositions and the known nematocides.

Alternaria sobani [3] = test: Inhibition of phytopathogenic fungi, field test on affected potato plants; type: in vivo; settings: 5 m^2 plots of affected potato plants sprayed
In short: (§1)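 Infected potato plants grown in 5 m^2 field plots received a spray of the fungicide under test, while matching affected plots were sprayed with previously known compositions as the comparison.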

Verticillium albo-atrum [4] = test: as above; type: in vivo; settings: 5 m^2 plots of affected potato plants sprayed
In short: as §1

Venturia inaequalis [5] = test: as above; type: in vivo; settings: 5 m^2 plots of affected potato plants sprayed
In short: as §1

Rhyzoctonia aderholdii [6] = test: as above; type: in vivo; settings: 5 m^2 plots of affected potato plants sprayed
In short: as §1

Diplodia zeae [7] = test: as above; type: in vivo; settings: 5 m^2 plots of affected potato plants sprayed
In short: as §1

Fusarium moniliforme [8] = test: as above; type: in vivo; settings: 5 m^2 plots of affected potato plants sprayed
In short: as §1

Fusarium culmorum [9] = test: as above; type: in vivo; settings: 5 m^2 plots of affected potato plants sprayed
In short: as §1

Aspergillus niger [10] = test: as above; type: in vivo; settings: 5 m^2 plots of affected potato plants sprayed
In short: as §1

Botrytis cinereae [11] = test: as above; type: in vivo; settings: 5 m^2 plots of affected potato plants sprayed
In short: as §1

Rhyzoctonia violaceae [12] = test: as above; type: in vivo; settings: 5 m^2 plots of affected potato plants sprayed
In short: as §1

Botrytis allii [13] = test: as above; type: in vivo; settings: 5 m^2 plots of affected potato plants sprayed
In short: as §1

Fusarium oxysporum [14] = test: as above; type: in vivo; settings: 5 m^2 plots of affected potato plants sprayed
In short: as §1

Rhoma betae [15] = test: as above; type: in vivo; settings: 5 m^2 plots of affected potato plants sprayed
In short: as §1

Aspergillus fumigatis [16] = test: as above; type: in vivo; settings: 5 m^2 plots of affected potato plants sprayed
In short: as §1

Penicillium cyclopium [17] = test: as above; type: in vivo; settings: 5 m^2 plots of affected potato plants sprayed
In short: as §1

Alternaria sobani [18] = test: Inhibition of phytopathogenic fungi growth, laboratory test on potato-dextrose agar; type: cell-based; settings: active principle 0.01 % by mass in potato-dextrose agar
In short: (§2)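 PDA plates + active principle 0.01% by mass (from 0.01% aq. solution); inoculated w/ mycelium; untreated agar = control; growth inhibition scored.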

Verticillium albo-atrum [19] = test: as above; type: cell-based; settings: active principle 0.01 % by mass in potato-dextrose agar
In short: as §2

Venturia inaequalis [20] = test: as above; type: cell-based; settings: active principle 0.01 % by mass in potato-dextrose agar
In short: as §2

Rhyzoctonia aderholdii [21] = test: as above; type: cell-based; settings: active principle 0.01 % by mass in potato-dextrose agar
In short: as §2

Diplodia zeae [22] = test: as above; type: cell-based; settings: active principle 0.01 % by mass in potato-dextrose agar
In short: as §2

Fusarium moniliforme [23] = test: as above; type: cell-based; settings: active principle 0.01 % by mass in potato-dextrose agar
In short: as §2

Fusarium culmorum [24] = test: as above; type: cell-based; settings: active principle 0.01 % by mass in potato-dextrose agar
In short: as §2

Aspergillus niger [25] = test: as above; type: cell-based; settings: active principle 0.01 % by mass in potato-dextrose agar
In short: as §2

Botrytis cinereae [26] = test: as above; type: cell-based; settings: active principle 0.01 % by mass in potato-dextrose agar
In short: as §2

Rhyzoctonia violaceae [27] = test: as above; type: cell-based; settings: active principle 0.01 % by mass in potato-dextrose agar
In short: as §2

Botrytis allii [28] = test: as above; type: cell-based; settings: active principle 0.01 % by mass in potato-dextrose agar
In short: as §2

Fusarium oxysporum [29] = test: as above; type: cell-based; settings: active principle 0.01 % by mass in potato-dextrose agar
In short: as §2

Rhoma betae [30] = test: as above; type: cell-based; settings: active principle 0.01 % by mass in potato-dextrose agar
In short: as §2

Aspergillus fumigatis [31] = test: as above; type: cell-based; settings: active principle 0.01 % by mass in potato-dextrose agar
In short: as §2

Penicillium cyclopium [32] = test: as above; type: cell-based; settings: active principle 0.01 % by mass in potato-dextrose agar
In short: as §2

Row | Structure (SMILES) | solubility (Solubility (qualitative)) | Inhibition of growth of phytopathogenic fungi colonies, % Alternaria sobani test field (Alternaria sobani [3]) [%] | Inhibition of growth of phytopathogenic fungi colonies, % Verticillium albo--atrum test field (Verticillium albo-atrum [4]) [%] | Inhibition of growth of phytopathogenic fungi colonies, % Venturia inaequalis test field (Venturia inaequalis [5]) [%] | Inhibition of growth of phytopathogenic fungi colonies, % Rhyzoctonia aderholdii test field (Rhyzoctonia aderholdii [6]) [%] | Inhibition of growth of phytopathogenic fungi colonies, % Diplodia zeae test field (Diplodia zeae [7]) [%] | Inhibition of growth of phytopathogenic fungi colonies, % Fusatium monili-forme test field (Fusarium moniliforme [8]) [%] | Inhibition of growth of phytopathogenic fungi colonies, % Fusarium culmorum Tests field (Fusarium culmorum [9]) [%] | Inhibition of growth of phytopathogenic fungi colonies, % Aspergillus niger test field (Aspergillus niger [10]) [%] | Inhibition of growth of phytopathogenic fungi colonies, % Botrytis cinereae test field (Botrytis cinereae [11]) [%] | Inhibition of growth of phytopathogenic fungi colonies, % Rhyzoctonia violaceae test field (Rhyzoctonia violaceae [12]) [%] | Inhibition of growth of phytopathogenic fungi colonies, % Botrytis allii test field (Botrytis allii [13]) [%] | Inhibition of growth of phytopathogenic fungi colonies, % Fusarium oxysporum test field (Fusarium oxysporum [14]) [%] | Inhibition of growth of phytopathogenic fungi colonies, % Rhoma betae test field (Rhoma betae [15]) [%] | Inhibition of growth of phytopathogenic fungi colonies, % Aspergillus fumigatis Tests field (Aspergillus fumigatis [16]) [%] | Inhibition of growth of phytopathogenic fungi colonies, % Penicillium cyclopium Tests field (Penicillium cyclopium [17]) [%] | Inhibition of growth of phytopathogenic fungi colonies, % Alternaria sobani test laboratory (Alternaria sobani [18]) [%] | Inhibition of growth of phytopathogenic fungi colonies, % Verticillium albo--atrum test laboratory (Verticillium albo-atrum [19]) [%] | Inhibition of growth of phytopathogenic fungi colonies, % Venturia inaequalis test laboratory (Venturia inaequalis [20]) [%] | Inhibition of growth of phytopathogenic fungi colonies, % Rhyzoctonia aderholdii test laboratory (Rhyzoctonia aderholdii [21]) [%] | other results
1 | O=C(NP(=O)(Nc1ccccc1Cl)Nc1ccccc1Cl)c1ccc(Br)cc1 [Example 17, para-bromobenzoylamidophosphoric acid di-ortho-chloroanilide] | soluble in water, alcohols, acetone | – | – | – | – | – | – | – | – | – | – | – | – | – | – | – | – | – | – | – | Death of larvae, %, conditions experimental [1]: 100%; phytotoxical effect on leaves of tomato and cucumber [2]: no phytotoxical effect; Death of larvae, %, conditions field (gall nematodes): 100%
2 | O=C(NP(=O)(Nc1ccc(Br)cc1)Nc1ccc(Br)cc1)c1ccc(Br)cc1 [Example 15] | soluble in water, alcohols, acetone | 98 | 100 | 98 | 99 | 98 | 99 | 100 | 98 | 98 | 99 | 96 | 81 | 98 | 80 | 89 | 100 | 100 | 100 | 100 | Inhibition of growth of phytopathogenic fungi colonies, % Diplodia zeae test laboratory (Diplodia zeae [22]): 100%; Inhibition of growth of phytopathogenic fungi colonies, % Fusatium monili-forme test laboratory (Fusarium moniliforme [23]): 100%; Inhibition of growth of phytopathogenic fungi colonies, % Fusarium culmorum Tests laboratory (Fusarium culmorum [24]): 100%; Inhibition of growth of phytopathogenic fungi colonies, % Aspergillus niger test laboratory (Aspergillus niger [25]): 100%; Inhibition of growth of phytopathogenic fungi colonies, % Botrytis cinereae test laboratory (Botrytis cinereae [26]): 100%; Inhibition of growth of phytopathogenic fungi colonies, % Rhyzoctonia violaceae test laboratory (Rhyzoctonia violaceae [27]): 100%; Inhibition of growth of phytopathogenic fungi colonies, % Botrytis allii test laboratory (Botrytis allii [28]): 99%; Inhibition of growth of phytopathogenic fungi colonies, % Fusarium oxysporum test laboratory (Fusarium oxysporum [29]): 83%; Inhibition of growth of phytopathogenic fungi colonies, % Rhoma betae test laboratory (Rhoma betae [30]): 100%; Inhibition of growth of phytopathogenic fungi colonies, % Aspergillus fumigatis Tests laboratory (Aspergillus fumigatis [31]): 88%; Inhibition of growth of phytopathogenic fungi colonies, % Penicillium cyclopium Tests laboratory (Penicillium cyclopium [32]): 100%
3 | O=C(NP(=O)(Nc1ccc(Cl)cc1[N+](=O)[O-])Nc1ccc(Cl)cc1[N+](=O)[O-])c1ccc(Br)cc1 [Example 16, para-bromobenzoylamidophosphoric acid di-para-chloro-ortho--nitroanilide] | soluble in water, alcohols, acetone | 98 | 100 | 100 | 100 | 100 | 73 | 99 | 100 | 100 | 86 | 100 | 97 | 99 | 91 | 79 | 100 | 100 | 100 | 100 | Inhibition of growth of phytopathogenic fungi colonies, % Diplodia zeae test laboratory (Diplodia zeae [22]): 100%; Inhibition of growth of phytopathogenic fungi colonies, % Fusatium monili-forme test laboratory (Fusarium moniliforme [23]): 74%; Inhibition of growth of phytopathogenic fungi colonies, % Fusarium culmorum Tests laboratory (Fusarium culmorum [24]): 100%; Inhibition of growth of phytopathogenic fungi colonies, % Aspergillus niger test laboratory (Aspergillus niger [25]): 100%; Inhibition of growth of phytopathogenic fungi colonies, % Botrytis cinereae test laboratory (Botrytis cinereae [26]): 100%; Inhibition of growth of phytopathogenic fungi colonies, % Rhyzoctonia violaceae test laboratory (Rhyzoctonia violaceae [27]): 87%; Inhibition of growth of phytopathogenic fungi colonies, % Botrytis allii test laboratory (Botrytis allii [28]): 100%; Inhibition of growth of phytopathogenic fungi colonies, % Fusarium oxysporum test laboratory (Fusarium oxysporum [29]): 98%; Inhibition of growth of phytopathogenic fungi colonies, % Rhoma betae test laboratory (Rhoma betae [30]): 100%; Inhibition of growth of phytopathogenic fungi colonies, % Aspergillus fumigatis Tests laboratory (Aspergillus fumigatis [31]): 92%; Inhibition of growth of phytopathogenic fungi colonies, % Penicillium cyclopium Tests laboratory (Penicillium cyclopium [32]): 80%
